In paper PMC11990670, “Exploring the Volatility, Phase Transitions, and Solubility Properties of Five Halogenated Benzaldehydes” (Molecules, 2025):
Values after ≈ are worked out from the molar mass of the structure shown. Like-named read-outs stand apart in the source and are kept apart here.

What was measured:
[1] = Thermodynamic properties of sublimation and vaporization from Clarke and Glew fit of vapor pressures
Text: The experimental crystalline and liquid vapor pressures were independently fitted by the Clarke and Glew Equation (1) in its truncated form:(1) Rlnp/p^°=−ΔcdgGm°θ/θ+ΔcdgHm°θ1/θ−1/T+ΔcdgCp,m°θθ/T−1+lnT/θ where R is the molar gas constant, p is the vapor pressure at the temperature T, p° is a selected reference pressure (p° = 10^5 Pa in this work), and θ is a reference temperature. The differences between gaseous and condensed phases of standard molar Gibbs energy, enthalpy, and the isobaric heat capacity are represented, respectively, by ΔcdgGm° , ΔcdgHm° , and ΔcdgCp,m° .
The values of ΔcdgCp,m° are generally achieved only when accurate experimental data measured over ca. 50 K are reachable. […] For comparison reasons, the values of ΔcrgCp,m° were also calculated as ΔcrgCp,m°(θ)=Cp,m°(g)−Cp,m°(cr) , where the terms Cp,m°(g) and Cp,m°(cr) are, respectively, the gas and crystalline isobaric molar heat capacities. […] The crystalline molar heat capacities, Cp,m°(cr) , were determined at different temperatures using differential scanning calorimetry, enabling the fit to second-order polynomials in temperature, represented by Equation (3) and reported in Table 3. […] The values of Cp,m°(cr,298.15 K) were derived from these equations, allowing ΔcrgCp,m°(298.15 K) to be calculated.

[2] = Gibbs energy of hydration and Henry's law volatility constant calculated from sublimation and solubility data; conditions: 25 °C; for Gibbs energy of hydration ΔhydrGm°: calculated by Equation (4); for log10(KHpc/kPa·m^3·mol^−1) Henry's law volatility constant: calculated by Equation (6); for KHpc×10^3 Henry's law volatility constant: value is KHpc multiplied by 10^3
Protocol: (§1) The concentration was measured by absorbances at 260 nm for 4-chlorobenzaldehyde, 263 nm for 4-bromobenzaldehyde and 2,4-dichlorobenzaldehyde, 297 nm for 2,6-dichlorobenzaldehyde, and 306 nm for 2,3-dichlorobenzaldehyde, using a Cary-60 UV–vis (Agilent) spectrophotometer. X-ray diffraction (XRD) and differential scanning calorimetry of residual solids were used to identify the eventual phase transformations. The purified samples of each compound studied were used for all experimental determinations, including the solubility measurements. After reaching the equilibrium, the residual solid was dried and analyzed using both DSC and XRD. The melting properties obtained from DSC were compared with those of the original purified sample, following the same procedure for the XRD analysis. […] As an example, the supporting information includes two thermograms and two XRD patterns for 2,4-dichlorobenzaldehyde (Figures S1 and S2). […] Equation (4) was derived from Equation (5), which is widely applicable to the solubility of solids.(4) ΔhydrGm°/kJ·mol^−1=9.17−5.71·log10(Scr/mol·m^−3)−ΔcrgGm°/kJ·mol^−1 (5) S=p^°/RTexpΔcrgGm°+ΔhydrGm°/−RT
The standard states in Equation (5) are p° = 1 × 10^5 Pa for ΔcrgGm° , c° = 1 mol·L^−1 for ΔhydrGm° and s° = 1 mol·m^−3 for solubility. Using the experimental results of ΔhydrGm° , calculated through Equation (4), the values of Henry’s law volatility constants, KHpc, were determined in the logarithm form by Equation (6), that was adapted from Modarressi et al..

[3] = cited from earlier work
[4] = Equilibrium solubility in water, saturation shake-flask method with UV-vis; conditions: 25 °C, thermodynamic from solid
Protocol: as §1
An excess amount of each compound was added to a known volume of water in triplicate. […] After stirring, the solid phase was allowed to settle for 2 h. The pH of the saturated solutions was measured using a Mettler Toledo (Greifensee, Switzerland) FiveEasy F20 pH Meter calibrated with standard aqueous solutions (pH 7.00 and 4.01 or 10.1). Those solutions were then filtered through a 0.22 μm syringe hydrophilic filter (13 mm, PTFE, Labfil, Zhejiang, China) and diluted to the required concentration. The concentration of the compounds, expressed in molarity, was measured by absorbances using a Cary-60 UV–vis spectrophotometer (Agilent Technologies, Santa Clara, CA, USA) at 298.15 K (single cell Peltier accessory, ±0.15 K). The results reported in Table 6 are averaged from at least three replicates. Calibration was performed using solutions of known concentrations of each substance in water. These solutions were prepared by adding a precise mass of the substance and a specific volume of the solvent to a flask, then mixing until the substance was fully dissolved. The absorbance of these solutions was measured, and calibration curves were created.

[5] = 20 °C, cited from earlier work
[6] = crystalline phase, θ = 298.15 K
[7] = crystalline phase, θ = 298.15 K, p° = 10^5 Pa
[8] = crystalline phase, θ = 303.88 K (mean temperature)
[9] = crystalline phase, θ = 330.02 K (triple point)
[10] = liquid phase including supercooled liquid, θ = 298.15 K
[11] = liquid phase including supercooled liquid, θ = 298.15 K, p° = 10^5 Pa
[12] = liquid phase, θ = 330.02 K (triple point)
[13] = liquid phase, θ = 345.37 K (mean temperature)
[14] = crystalline phase, θ = 291.18 K (mean temperature)
[15] = crystalline phase, θ = 319.43 K (triple point)
[16] = liquid phase, θ = 319.43 K (triple point)
[17] = liquid phase, θ = 331.52 K (mean temperature)

Structure (SMILES) | p (Equation (1)) vapor pressure [1, 6] | ΔcdgGm°(θ) standard molar Gibbs energy of sublimation [1, 7] | ΔcdgHm°(θ) standard molar enthalpy of sublimation [1, 7] | ΔcdgSm°(θ) (Equation (2)) standard molar entropy of sublimation [1, 7] | p (Equation (1)) vapor pressure [1, 10] | ΔcdgGm°(θ) standard molar Gibbs energy of vaporization [1, 11] | ΔcdgHm°(θ) standard molar enthalpy of vaporization [1, 11] | ΔcdgSm°(θ) (Equation (2)) standard molar entropy of vaporization [1, 11] | Gibbs energy of hydration ΔhydrGm° [2] | log10(KHpc/kPa·m^3·mol^−1) Henry's law volatility constant [2] | KHpc×10^3 Henry's law volatility constant [2] | water solubility, estimated value ([3]; ALI method) | water solubility, estimated value ([3]; ESOL method) | water solubility, estimated value ([3]; SILICO-IT method) | solubility at 72 h [4] | further results
O=Cc1ccc(Br)cc1 [4-Bromobenzaldehyde] | 4.59 Pa | 5.918 ± 0.0024 kcal/mol | 19 ± 0.048 kcal/mol | 183.3 ± 0.7 J·K^−1·mol^−1 | 9.57 Pa | 5.483 ± 0.012 kcal/mol | 14.6 ± 0.17 kcal/mol | 128.3 ± 2.4 J·K^−1·mol^−1 | -4.49 kcal/mol | −2.90 | 1.26 kPa·m^3·mol^−1 | 7.06 mM | 1.68 mM | 0.634 mM | 3.71 mM (≈ 687 µg/mL) | triple point pressure ptp ([1]; Ttp = 330.02 K): 99.1 Pa; p (Equation (1)) vapor pressure [1, 8]: 8.40 Pa; ΔcdgGm°(θ) standard molar Gibbs energy of sublimation [1, 8]: 5.667 ± 0.0024 kcal/mol; ΔcdgHm°(θ) standard molar enthalpy of sublimation [1, 8]: 18.9 ± 0.048 kcal/mol; p (Equation (1)) vapor pressure [1, 9]: 99.1 Pa; ΔcdgGm°(θ) standard molar Gibbs energy of sublimation [1, 9]: 4.536 ± 0.0072 kcal/mol; ΔcdgHm°(θ) standard molar enthalpy of sublimation [1, 9]: 18.7 ± 0.17 kcal/mol; p (Equation (1)) vapor pressure [1, 12]: 99.1 Pa; ΔcdgGm°(θ) standard molar Gibbs energy of vaporization [1, 12]: 4.536 ± 0.0072 kcal/mol; ΔcdgHm°(θ) standard molar enthalpy of vaporization [1, 12]: 14 ± 0.072 kcal/mol; p (Equation (1)) vapor pressure [1, 13]: 254 Pa; ΔcdgGm°(θ) standard molar Gibbs energy of vaporization [1, 13]: 4.101 ± 0.0024 kcal/mol; ΔcdgHm°(θ) standard molar enthalpy of vaporization [1, 13]: 13.7 ± 0.024 kcal/mol
O=Cc1ccc(Cl)cc1 [4-Chlorobenzaldehyde] | 17.3 Pa | 5.131 ± 0.0024 kcal/mol | 17.5 ± 0.048 kcal/mol | 173.8 ± 0.7 J·K^−1·mol^−1 | 27.3 Pa | 4.861 ± 0.0072 kcal/mol | 13.6 ± 0.14 kcal/mol | 122.0 ± 2.0 J·K^−1·mol^−1 | -4.23 kcal/mol | −2.71 | 1.95 kPa·m^3·mol^−1 | 8.15 mM | 3.45 mM | 1.16 mM | 8.83 mM (≈ 1240 µg/mL) | triple point pressure ptp ([1]; Ttp = 319.43 K): 1.23 × 10^2 Pa; p (Equation (1)) vapor pressure [1, 14]: 8.54 Pa; ΔcdgGm°(θ) standard molar Gibbs energy of sublimation [1, 14]: 5.421 ± 0.0024 kcal/mol; ΔcdgHm°(θ) standard molar enthalpy of sublimation [1, 14]: 17.6 ± 0.024 kcal/mol; p (Equation (1)) vapor pressure [1, 15]: 123 Pa; ΔcdgGm°(θ) standard molar Gibbs energy of sublimation [1, 15]: 4.252 ± 0.0048 kcal/mol; ΔcdgHm°(θ) standard molar enthalpy of sublimation [1, 15]: 17.4 ± 0.14 kcal/mol; p (Equation (1)) vapor pressure [1, 16]: 123 Pa; ΔcdgGm°(θ) standard molar Gibbs energy of vaporization [1, 16]: 4.252 ± 0.0048 kcal/mol; ΔcdgHm°(θ) standard molar enthalpy of vaporization [1, 16]: 13.2 ± 0.048 kcal/mol; p (Equation (1)) vapor pressure [1, 17]: 262 Pa; ΔcdgGm°(θ) standard molar Gibbs energy of vaporization [1, 17]: 3.917 ± 0.0024 kcal/mol; ΔcdgHm°(θ) standard molar enthalpy of vaporization [1, 17]: 13 ± 0.024 kcal/mol; water solubility ([5]; converted from 935 mg/L): 6.652 mM; water solubility [5]: 935 µg/mL; water solubility, estimated value ([3]; 25 °C, converted from 1340 mg/L): 9.532 mM; water solubility, estimated value ([3]; 25 °C): 1340 µg/mL
